Activity calls are given as the source filed them.
Key:
X-box-binding protein 1 = X-box-binding protein 1 (Homo sapiens, UniProt P17861); assay type: functional, Cricetulus griseus;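 also: confirmatory dose-response counter-screen serving a CHOP assay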
BJ [1] = assay: cytotoxicity toward BJ-TERT fibroblasts, dose response, cell-based, RAS-independent, luminescence (AID 1933); assay type: functional; settings: Homo sapiens
BJ [2] = assay: cells; assay type: functional, cell-based; settings: Homo sapiens
[3] = inhibitors of SNCA 5'UTR-driven reporter translation, confirmation, H4 neuroglioma cells, luminescence (AID 1988); assay type: functional, cell-based
BJ [4] = assay: cytotoxicity toward BJ-TERT-LT-ST fibroblasts, dose response, cell-based, RAS-independent, luminescence (AID 1935); assay type: functional; settings: Homo sapiens;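 also: BJ fibroblasts immortalized with TERT plus LT and ST oncogenes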
[5] = inhibitors of firefly luciferase expression or activity, dose response, H4 neuroglioma cells, luminescence (AID 1990); assay type: functional, cell-based
J774.A1 = assay: Confirmation of image-based Screening Assay for Inhibitors of Phagocytosis. [Related pubchem assays (depositor defined):AID1029, AID1643]; assay type: functional, cell-based; settings: Mus musculus
[6] = human group III sPLA2 inhibitors, dose response, biochemical, QFRET, IC50 (AID 743457);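 also: green fluorescence rise as the enzyme cleaves BODIPY PC-A2 in liposomes; potency for inhibition of the enzyme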
[7] = Luminescence Cell-Based Dose Response HTS to Identify Inhibitors of 5'UTR Stem-Loop Driven Prion Protein mRNA Translation in H4 Neuroglioblastoma Cells. [Related pubchem assays: 1827 (Project Summary), 1813 (Primary HTS)]; assay type: functional
[8] = cytotoxicity toward DRD oncogenic fibroblasts, dose response, cell-based, non-viral oncogenic, luminescence (AID 1934); assay type: functional; settings: Homo sapiens
[9] = molecular target: T1, Heat shock factor protein 1 (Mus musculus, UniProt P38532); assay: inhibition of MG132-induced HSE-luciferase signal, confirmation, cell-based, NIH3T3, luminescence, dose retest (AID 2382); assay type: functional;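 also: NIH3T3 fibroblasts with HSF1-driven luciferase reporter stressed by proteasome inhibitor MG132; luminescence from HSF1-driven luciferase expression after 8 hours of MG132 stress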
T1 sequence (P38532 whole entry): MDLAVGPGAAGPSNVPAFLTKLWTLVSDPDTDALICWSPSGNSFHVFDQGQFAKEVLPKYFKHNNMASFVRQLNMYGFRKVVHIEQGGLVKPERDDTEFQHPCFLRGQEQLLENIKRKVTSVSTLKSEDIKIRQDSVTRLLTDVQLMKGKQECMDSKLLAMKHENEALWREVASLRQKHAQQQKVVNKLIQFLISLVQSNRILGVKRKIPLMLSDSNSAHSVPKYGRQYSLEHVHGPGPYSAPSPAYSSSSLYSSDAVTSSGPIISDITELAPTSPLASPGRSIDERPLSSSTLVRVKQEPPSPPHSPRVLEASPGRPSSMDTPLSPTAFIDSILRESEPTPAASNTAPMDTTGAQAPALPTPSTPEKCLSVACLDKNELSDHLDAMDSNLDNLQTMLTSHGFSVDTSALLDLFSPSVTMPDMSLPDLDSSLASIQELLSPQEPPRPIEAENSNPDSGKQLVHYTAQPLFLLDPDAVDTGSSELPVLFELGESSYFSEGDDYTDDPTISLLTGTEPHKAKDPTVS

NS3 = NS3 (Hepatitis C virus, UniProt A3EZJ3); assay: PubChem AID 2173; parameters: species or system Hepacivirus hominis
Chain of NS3 (A3EZJ3 whole entry): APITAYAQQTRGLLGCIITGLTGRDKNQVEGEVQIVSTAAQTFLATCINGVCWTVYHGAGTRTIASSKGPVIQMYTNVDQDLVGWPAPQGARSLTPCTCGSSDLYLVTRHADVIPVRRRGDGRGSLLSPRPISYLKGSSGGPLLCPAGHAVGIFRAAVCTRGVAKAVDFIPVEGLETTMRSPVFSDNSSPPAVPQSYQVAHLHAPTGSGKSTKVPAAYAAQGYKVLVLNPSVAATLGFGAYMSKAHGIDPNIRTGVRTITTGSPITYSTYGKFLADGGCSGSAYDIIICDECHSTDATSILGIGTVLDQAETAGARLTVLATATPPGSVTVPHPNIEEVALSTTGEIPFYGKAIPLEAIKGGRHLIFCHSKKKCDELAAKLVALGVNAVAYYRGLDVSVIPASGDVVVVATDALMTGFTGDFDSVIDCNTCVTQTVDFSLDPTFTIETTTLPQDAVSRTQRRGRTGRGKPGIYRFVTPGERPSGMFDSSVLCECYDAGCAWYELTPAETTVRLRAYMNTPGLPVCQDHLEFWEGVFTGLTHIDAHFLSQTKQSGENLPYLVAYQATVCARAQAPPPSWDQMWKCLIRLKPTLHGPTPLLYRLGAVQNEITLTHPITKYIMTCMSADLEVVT

[10] = molecular target: Peroxisome proliferator-activated receptor gamma/Nuclear receptor coactivator 1 (Homo sapiens, UniProt P37231); assay type: functional;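 also: agonist potency as compounds enhance coactivator SRC-1 recruitment to PPARgamma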
Chain of Peroxisome proliferator-activated receptor gamma/Nuclear receptor coactivator 1 (P37231 whole entry): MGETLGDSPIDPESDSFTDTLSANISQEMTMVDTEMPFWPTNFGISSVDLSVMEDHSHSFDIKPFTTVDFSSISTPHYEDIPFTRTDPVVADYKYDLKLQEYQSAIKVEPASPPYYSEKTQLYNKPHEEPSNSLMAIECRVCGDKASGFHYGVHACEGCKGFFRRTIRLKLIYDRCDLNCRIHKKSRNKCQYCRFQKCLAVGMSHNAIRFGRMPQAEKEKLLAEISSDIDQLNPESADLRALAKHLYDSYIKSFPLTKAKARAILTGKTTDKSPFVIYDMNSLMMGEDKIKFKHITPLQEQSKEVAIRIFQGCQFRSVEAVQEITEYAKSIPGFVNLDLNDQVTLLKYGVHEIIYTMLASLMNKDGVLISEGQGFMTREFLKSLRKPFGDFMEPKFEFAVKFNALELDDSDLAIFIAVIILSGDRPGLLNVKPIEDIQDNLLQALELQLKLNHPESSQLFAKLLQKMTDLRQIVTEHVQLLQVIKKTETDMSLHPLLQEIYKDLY
Chain of Peroxisome proliferator-activated receptor gamma/Nuclear receptor coactivator 1 (Q15788 whole entry, further chain): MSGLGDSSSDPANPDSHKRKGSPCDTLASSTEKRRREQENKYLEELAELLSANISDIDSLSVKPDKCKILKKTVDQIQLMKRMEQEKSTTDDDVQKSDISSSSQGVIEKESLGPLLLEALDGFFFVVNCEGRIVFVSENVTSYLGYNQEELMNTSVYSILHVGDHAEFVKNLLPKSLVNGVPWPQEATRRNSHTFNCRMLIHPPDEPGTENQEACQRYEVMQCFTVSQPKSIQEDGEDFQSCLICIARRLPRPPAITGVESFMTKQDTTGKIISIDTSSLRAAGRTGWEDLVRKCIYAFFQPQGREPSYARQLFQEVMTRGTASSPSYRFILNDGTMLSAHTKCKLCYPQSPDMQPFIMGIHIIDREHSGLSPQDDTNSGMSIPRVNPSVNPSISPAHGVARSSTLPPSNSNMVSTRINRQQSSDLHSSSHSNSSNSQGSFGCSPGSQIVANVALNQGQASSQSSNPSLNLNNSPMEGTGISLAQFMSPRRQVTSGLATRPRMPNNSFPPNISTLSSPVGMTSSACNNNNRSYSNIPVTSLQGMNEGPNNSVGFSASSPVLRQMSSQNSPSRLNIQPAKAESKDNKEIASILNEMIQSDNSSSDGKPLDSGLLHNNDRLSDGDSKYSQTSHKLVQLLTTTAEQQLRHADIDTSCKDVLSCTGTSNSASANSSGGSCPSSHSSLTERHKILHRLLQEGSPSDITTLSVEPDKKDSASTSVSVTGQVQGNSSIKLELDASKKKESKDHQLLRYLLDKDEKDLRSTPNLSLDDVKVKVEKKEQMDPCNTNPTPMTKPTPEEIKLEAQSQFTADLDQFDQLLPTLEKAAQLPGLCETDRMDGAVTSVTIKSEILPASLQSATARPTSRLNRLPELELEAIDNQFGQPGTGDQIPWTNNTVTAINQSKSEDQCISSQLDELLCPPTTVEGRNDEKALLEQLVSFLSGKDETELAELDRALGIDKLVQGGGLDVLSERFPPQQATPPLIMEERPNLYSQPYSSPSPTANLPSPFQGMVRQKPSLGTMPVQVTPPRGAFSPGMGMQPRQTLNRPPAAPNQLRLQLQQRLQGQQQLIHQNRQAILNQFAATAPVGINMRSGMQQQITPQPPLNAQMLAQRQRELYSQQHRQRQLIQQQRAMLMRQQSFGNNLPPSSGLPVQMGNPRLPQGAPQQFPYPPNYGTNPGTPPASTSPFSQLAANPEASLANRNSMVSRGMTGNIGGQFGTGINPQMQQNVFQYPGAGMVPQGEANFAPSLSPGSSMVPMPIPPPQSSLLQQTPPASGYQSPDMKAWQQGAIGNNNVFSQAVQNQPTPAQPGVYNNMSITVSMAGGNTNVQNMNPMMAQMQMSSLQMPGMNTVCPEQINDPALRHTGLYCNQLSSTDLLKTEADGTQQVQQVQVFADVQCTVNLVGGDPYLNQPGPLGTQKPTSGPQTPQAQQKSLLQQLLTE

[11] = molecular target: Peroxisome proliferator-activated receptor gamma/Nuclear receptor coactivator 3 (Homo sapiens, UniProt P37231); assay type: functional;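 also: agonist potency for raising coactivator recruitment to the receptor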
[12] = molecular target: Peroxisome proliferator-activated receptor gamma/Nuclear receptor coactivator 2 (Homo sapiens, UniProt P37231); assay type: functional;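 also: agonist potency for raising coactivator recruitment to the receptor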
Chain of Peroxisome proliferator-activated receptor gamma/Nuclear receptor coactivator 2 (P37231 whole entry): as the sequence (P37231 whole entry) above
Chain of Peroxisome proliferator-activated receptor gamma/Nuclear receptor coactivator 2 (Q15596 whole entry, further chain): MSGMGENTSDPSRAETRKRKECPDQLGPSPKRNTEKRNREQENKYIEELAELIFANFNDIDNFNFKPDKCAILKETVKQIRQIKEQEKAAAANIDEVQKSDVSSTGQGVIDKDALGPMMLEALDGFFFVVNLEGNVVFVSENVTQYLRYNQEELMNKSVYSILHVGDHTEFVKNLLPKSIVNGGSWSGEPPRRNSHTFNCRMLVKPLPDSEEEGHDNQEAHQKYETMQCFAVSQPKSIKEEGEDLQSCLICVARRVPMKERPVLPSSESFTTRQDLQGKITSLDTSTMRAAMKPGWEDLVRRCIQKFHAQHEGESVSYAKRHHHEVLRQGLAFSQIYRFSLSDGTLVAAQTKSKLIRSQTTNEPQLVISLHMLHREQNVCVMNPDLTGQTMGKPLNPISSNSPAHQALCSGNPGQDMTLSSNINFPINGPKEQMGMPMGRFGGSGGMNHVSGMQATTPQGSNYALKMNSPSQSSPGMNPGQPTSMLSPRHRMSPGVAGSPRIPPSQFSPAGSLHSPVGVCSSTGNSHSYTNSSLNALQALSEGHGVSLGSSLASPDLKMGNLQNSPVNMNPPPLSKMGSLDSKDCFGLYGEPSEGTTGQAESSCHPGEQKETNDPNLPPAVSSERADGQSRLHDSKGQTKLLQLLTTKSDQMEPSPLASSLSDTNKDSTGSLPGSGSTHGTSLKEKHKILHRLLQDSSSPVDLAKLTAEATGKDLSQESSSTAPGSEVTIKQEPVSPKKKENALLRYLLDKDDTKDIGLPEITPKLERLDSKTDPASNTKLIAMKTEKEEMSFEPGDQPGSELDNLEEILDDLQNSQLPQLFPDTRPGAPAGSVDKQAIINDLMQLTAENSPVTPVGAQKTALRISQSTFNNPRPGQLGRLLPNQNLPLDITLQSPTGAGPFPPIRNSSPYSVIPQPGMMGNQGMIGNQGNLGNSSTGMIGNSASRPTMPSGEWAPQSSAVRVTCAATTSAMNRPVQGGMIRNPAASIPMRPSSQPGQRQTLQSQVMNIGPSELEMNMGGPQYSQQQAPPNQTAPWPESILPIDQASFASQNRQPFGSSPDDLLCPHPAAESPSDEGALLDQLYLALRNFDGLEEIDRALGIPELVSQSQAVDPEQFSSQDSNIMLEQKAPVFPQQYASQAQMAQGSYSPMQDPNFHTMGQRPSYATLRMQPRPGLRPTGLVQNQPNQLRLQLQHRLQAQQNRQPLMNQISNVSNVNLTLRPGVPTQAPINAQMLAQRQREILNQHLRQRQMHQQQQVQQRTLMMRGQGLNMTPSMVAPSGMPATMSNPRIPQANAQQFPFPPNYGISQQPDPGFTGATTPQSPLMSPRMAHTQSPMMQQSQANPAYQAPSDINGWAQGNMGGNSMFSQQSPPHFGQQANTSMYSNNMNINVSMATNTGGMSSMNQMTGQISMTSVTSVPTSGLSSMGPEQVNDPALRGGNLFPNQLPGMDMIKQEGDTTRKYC

Chain of X-box-binding protein 1 (P17861 whole entry): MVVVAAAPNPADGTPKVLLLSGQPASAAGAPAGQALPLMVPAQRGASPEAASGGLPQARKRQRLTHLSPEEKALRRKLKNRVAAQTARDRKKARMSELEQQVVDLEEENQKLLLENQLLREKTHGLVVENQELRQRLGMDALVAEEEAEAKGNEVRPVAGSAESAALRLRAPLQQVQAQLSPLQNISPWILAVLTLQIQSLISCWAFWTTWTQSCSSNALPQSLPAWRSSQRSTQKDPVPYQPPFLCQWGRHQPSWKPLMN

## CCOc1ccc(N/C=C2/C(=O)NC(=O)N(C(C)(C)C)C2=O)cc1
X-box-binding protein 1
  Absolute IC50 (XBP1): 10 µM

## CCOc1cc(CNc2ccc3c(c2)OCCO3)cc(Br)c1OCC
BJ [1]
  EC50: 1.85 µM (active)
BJ [2]
  EC50: 15.6 µM (active)
[3]
  EC50: 1.58 µM (active)
BJ [4]
  EC50: 2.43 µM (inconclusive)
[5]
  EC50: 8.47 µM (inconclusive)
J774.A1
  IC50: 2.51 µM (active)
[6]
  IC50: > 122 µM (inactive)
[7]
  EC50: > 120 µM (not active)
[8]
  EC50: 1.6 µM (active)
[9]
  EC50: 2.48 µM (active)

## Cc1cc2cc(C(c3nnnn3Cc3ccco3)N3CCc4ccccc4C3)c(O)nc2cc1C (stereo unspecified)
NS3
  IC50: > 109 µM (not active)

## CCC(C)Sc1nc2c(c(=O)[nH]c(=O)n2C)n1Cc1ccc(Cl)cc1 (stereo unspecified)
X-box-binding protein 1
  Absolute IC50 (XBP1): 10 µM

## CCOC(=O)c1c(NC(=O)CSc2nc(C)cc(C)c2C#N)sc(C(C)=O)c1C
[10]
  EC50: > 79.4 µM (not active)
[11]
  EC50: > 79.4 µM (not active)
[12]
  EC50: > 79.4 µM (not active)

— ChEMBL document CHEMBL1201862, “PubChem BioAssay data set” (2004)
